# “And” between values parts separate entries of the source, which are not always exact repeats. Equal entries are not always repeated. Where two headings read alike, the source gives them in different places.
# How the values were obtained:
# [1] = Dynamic PET scan of [18F]-YJH08, time activity curves; assay type: in vivo, mouse; settings: two phase exponential decay fit; C57B16/J mice
# Procedure: To understand the biodistribution of [18F]-YJH08 in vivo, a dynamic PET scan over 60 min was first conducted in immunocompetent male C57B16/J mice (FIG. 3A). Prior to injection, the formulated dose of [18F]-YJH08 was passed through a sterile 0.22 μm membrane. Approximately 300 μCi was injected via tail vein in a volume of 100-150 μL per mouse. After a given period of uptake time, the mice were anesthetized with 2-3% isoflurane, and imaged with a Siemens Inveon micro PET/CT. For dynamic acquisitions, the mice were anesthetized prior to injection, and injected while positioned on the scanner bed. All imaging data was decay corrected, reconstructed, and analyzed with AMIDE software. Maximum intensity projections (MIPs) were generated by AMIDE software. Regions of interest (ROI) were manually placed to calculate SUV data from the dynamic acquisitions.
# First, the radiotracer rapidly cleared from serum, and fitting the data with a two phase exponential decay curve estimated the fast and slow half-lives to be ˜21 sec and ˜760 sec, respectively. Moreover, liver uptake was prominent at very early time points post injection (0-300 sec), with continuous washout from ˜300-3600 sec.
# [2] = from 90 min dynamic PET in C57B16/J mice
# From the text: Normal Tissue Radiation Dose Estimation. Volumes of interest (VOIs) were drawn on coregistered CT images for brain, lungs, heart, liver, stomach, kidneys, and urinary bladder. All VOIs were either elliptical cylinder (5 mm long axis, 3 mm short axis, and 5 mm height for the brain), cylinders (3 mm diameter and 3 mm height for kidneys), or spheres (3 mm diameter for lungs, heart, liver, stomach, and urinary bladder), and they were placed well within the anatomical boundaries to minimize spill-over or spill-in of radioactivity. The mean values (in Bq/ml) in these VOIs were multiplied by standard mouse organ volumes (in ml) to estimate total activity (in Bq) within these organs. The total activity within the entire animal subtracted by all organ activities was used as activity in the remainder of the body. The percent of injected activity within the defined organs (% IA) was extrapolated to human-equivalent values using ratios of standard human organ weights to mouse organ weights.
# These input % IA data for each organ and the remainder of the body were curve-fitted to derive time-integrated activity coefficients (also known as residence times) (in Bq-hr/Bq) and organ and whole-body effective doses for human equivalents were estimated using each mouse data. The data from the three animals were averaged to derive absorbed organs doses (in mGy/MBq) and whole-body effective dose (in mSv/MBq). Organ and effective dose estimations were performed using OLINDA version 2.0 using ICRP Publication 103 tissue weighting factors.
# To explore the potential of (±)-^11C-YJH08 for human translation, a rodent dosimetry study was conducted in male and female C57B16/J mice ([…]). The human equivalent doses for an average adult male (73 kg) or an average adult female (60 kg) were calculated using OLINDA 2.0 incorporating ICRP103 tissue weighting factors based on region of interest analysis from 90 min dynamic PET acquisitions (Table 11). […] The values were calculated from a 90 min dynamic PET acquisition in intact male or female C57B16/J mice.
# [3] = blood collected 30 minutes post injection
# Procedure: Serum Stability Studies. Mice were euthanized, received radiotracer (30 MBq in 100-150 μL formulation) via tail injection, and dissected at dedicated time points post injection. The blood was collected and an aliquot (50 uL) was mixed with CH3CN (50 uL). The serum proteins were precipitated out and followed by a centrifugation (10000 rpm for 5 min). The cleared supernatant (50 uL) was collected and further analyzed by RAD-iTLC.
# To confirm stability, blood was collected at 30 minutes post injection, a time point after which specific binding in vivo with (±)—^18F-YJH08 occurred.
compound,measurement,setting,value
"COc1cccc2c1-c1ccc3c(c1C(Cc1ccc([18F])cc1)O2)C(C)=CC(C)(C)N3 (racemic) [[18F]-YJH08, [^18F]-5-(4-fluorobenzyl)-10-methoxy-2,2,4-trimethyl-2,5-dihydro-1H-chromeno[3,4-f]quinoline]",serum clearance fast half-life,[1],~0.35 min
same,serum clearance slow half-life,[1],~12.7 min
CC1=CC(C)(C)Nc2ccc3c(c21)C(Cc1ccc(F)cc1)Oc1cccc(O[11CH3])c1-3 (racemic) [(±)-^11C-YJH08],Effective Dose (whole-body),[2]; Adult female (60 kg),0.0065±0.004 mSv/MBq and 0.00649 ± 0.000433 mSv/MBq
same,"human equivalent absorbed dose, Adrenals",[2]; Adult female (60 kg),0.00578 ± 0.000156 mGy/MBq
same,"human equivalent absorbed dose, Brain",[2]; Adult female (60 kg),0.00229 ± 0.000078 mGy/MBq
same,"human equivalent absorbed dose, Breasts",[2]; Adult female (60 kg),0.00286 ± 0.000129 mGy/MBq
same,"human equivalent absorbed dose, Esophagus",[2]; Adult female (60 kg),0.00544 ± 0.000439 mGy/MBq
same,"human equivalent absorbed dose, Eyes",[2]; Adult female (60 kg),0.00223 ± 0.000061 mGy/MBq
same,"human equivalent absorbed dose, Gallbladder Wall",[2]; Adult female (60 kg),0.00459 ± 0.000041 mGy/MBq
same,"human equivalent absorbed dose, Heart Wall",[2]; Adult female (60 kg),0.0257 ± 0.005677 mGy/MBq
same,"human equivalent absorbed dose, Kidneys",[2]; Adult female (60 kg),0.00785 ± 0.001344 mGy/MBq
same,"human equivalent absorbed dose, Left colon",[2]; Adult female (60 kg),0.00437 ± 0.000314 mGy/MBq
same,"human equivalent absorbed dose, Liver",[2]; Adult female (60 kg),0.01863 ± 0.001258 mGy/MBq
same,"human equivalent absorbed dose, Lungs",[2]; Adult female (60 kg),0.00909 ± 0.000339 mGy/MBq
same,"human equivalent absorbed dose, Osteogenic Cells",[2]; Adult female (60 kg),0.00217 ± 0.000069 mGy/MBq
same,"human equivalent absorbed dose, Ovaries",[2]; Adult female (60 kg),0.00288 ± 0.000090 mGy/MBq
same,"human equivalent absorbed dose, Pancreas",[2]; Adult female (60 kg),0.00545 ± 0.000182 mGy/MBq
same,"human equivalent absorbed dose, Rectum",[2]; Adult female (60 kg),0.0028 ± 0.000087 mGy/MBq
same,"human equivalent absorbed dose, Red Marrow",[2]; Adult female (60 kg),0.00289 ± 0.000101 mGy/MBq
same,"human equivalent absorbed dose, Right colon",[2]; Adult female (60 kg),0.00339 ± 0.000070 mGy/MBq
same,"human equivalent absorbed dose, Salivary Glands",[2]; Adult female (60 kg),0.00241 ± 0.000068 mGy/MBq
same,"human equivalent absorbed dose, Small Intestine",[2]; Adult female (60 kg),0.00325 ± 0.000114 mGy/MBq
same,"human equivalent absorbed dose, Spleen",[2]; Adult female (60 kg),0.00432 ± 0.0003 mGy/MBq
same,"human equivalent absorbed dose, Stomach Wall",[2]; Adult female (60 kg),0.01925 ± 0.002944 mGy/MBq
same,"human equivalent absorbed dose, Thymus",[2]; Adult female (60 kg),0.00498 ± 0.000454 mGy/MBq
same,"human equivalent absorbed dose, Thyroid",[2]; Adult female (60 kg),0.00297 ± 0.000118 mGy/MBq
same,"human equivalent absorbed dose, Total Body",[2]; Adult female (60 kg),0.00366 ± 0.000121 mGy/MBq
same,"human equivalent absorbed dose, Urinary Bladder Wall",[2]; Adult female (60 kg),0.00288 ± 0.000114 mGy/MBq
same,"human equivalent absorbed dose, Uterus",[2]; Adult female (60 kg),0.00284 ± 0.000085 mGy/MBq
same,Effective Dose (whole-body),[2]; Adult male (73 kg),0.0067±0.002 mSv/MBq and 0.00673 ± 0.002757 mSv/MBq
same,"human equivalent absorbed dose, Adrenals",[2]; Adult male (73 kg),0.00533 ± 0.000748 mGy/MBq
same,"human equivalent absorbed dose, Brain",[2]; Adult male (73 kg),0.0014 ± 0.000022 mGy/MBq
same,"human equivalent absorbed dose, Esophagus",[2]; Adult male (73 kg),0.00831 ± 0.004249 mGy/MBq
same,"human equivalent absorbed dose, Eyes",[2]; Adult male (73 kg),0.00194 ± 0.000092 mGy/MBq
same,"human equivalent absorbed dose, Gallbladder Wall",[2]; Adult male (73 kg),0.00602 ± 0.000876 mGy/MBq
same,"human equivalent absorbed dose, Heart Wall",[2]; Adult male (73 kg),0.06753 ± 0.05072 mGy/MBq
same,"human equivalent absorbed dose, Kidneys",[2]; Adult male (73 kg),0.00714 ± 0.000174 mGy/MBq
same,"human equivalent absorbed dose, Left colon",[2]; Adult male (73 kg),0.00374 ± 0.000769 mGy/MBq
same,"human equivalent absorbed dose, Liver",[2]; Adult male (73 kg),0.01568 ± 0.001377 mGy/MBq
same,"human equivalent absorbed dose, Lungs",[2]; Adult male (73 kg),0.0135 ± 0.01113 mGy/MBq
same,"human equivalent absorbed dose, Osteogenic Cells",[2]; Adult male (73 kg),0.00223 ± 0.000391 mGy/MBq
same,"human equivalent absorbed dose, Pancreas",[2]; Adult male (73 kg),0.00665 ± 0.002374 mGy/MBq
same,"human equivalent absorbed dose, Prostate",[2]; Adult male (73 kg),0.0025 ± 0.000105 mGy/MBq
same,"human equivalent absorbed dose, Rectum",[2]; Adult male (73 kg),0.00249 ± 0.000093 mGy/MBq
same,"human equivalent absorbed dose, Red Marrow",[2]; Adult male (73 kg),0.0031 ± 0.000771 mGy/MBq
same,"human equivalent absorbed dose, Right colon",[2]; Adult male (73 kg),0.00367 ± 0.000548 mGy/MBq
same,"human equivalent absorbed dose, Salivary Glands",[2]; Adult male (73 kg),0.00226 ± 0.000156 mGy/MBq
same,"human equivalent absorbed dose, Small Intestine",[2]; Adult male (73 kg),0.00325 ± 0.000446 mGy/MBq
same,"human equivalent absorbed dose, Spleen",[2]; Adult male (73 kg),0.00378 ± 0.000828 mGy/MBq
same,"human equivalent absorbed dose, Stomach Wall",[2]; Adult male (73 kg),0.01628 ± 0.005962 mGy/MBq
same,"human equivalent absorbed dose, Testes",[2]; Adult male (73 kg),0.00204 ± 0.000046 mGy/MBq
same,"human equivalent absorbed dose, Thymus",[2]; Adult male (73 kg),0.01004 ± 0.005999 mGy/MBq
same,"human equivalent absorbed dose, Thyroid",[2]; Adult male (73 kg),0.00355 ± 0.00107 mGy/MBq
same,"human equivalent absorbed dose, Total Body",[2]; Adult male (73 kg),0.00355 ± 0.000856 mGy/MBq
same,"human equivalent absorbed dose, Urinary Bladder Wall",[2]; Adult male (73 kg),0.00247 ± 0.000136 mGy/MBq
same,radiotracer stable in blood (ITLC),[3],> 90%
